In publication PMC12165799, “Antimicrobial peptide developed with machine learning sequence optimization targets drug resistant Staphylococcus aureus in mice” (The Journal of Clinical Investigation, 2025):

Tests used:
[1] = test system: MRSA (S. aureus MW2) biofilm; test: Biofilm viability assay on solid support (MW2); format: cell-based, Staphylococcus aureus; conditions: 40 μg/mL, 24 h established biofilm
[2] = test system: VRSA (S. aureus VRS1) biofilm; test: Biofilm viability assay on solid support (VRS1); format: cell-based, Staphylococcus aureus; conditions: 40 μg/mL, 24 h established biofilm
[3] = test system: S. aureus MW2 biofilm formation; conditions: crystal violet, 24 h
Description: 349 Prevention of S. aureus MW2 biofilm formation
350 We evaluated the ability of the citropin 1.1-derived peptides to inhibit biofilm formation
351 following an established protocol with modifications (5). In short, we prepared exponential
352 cultures of S. aureus MW2 (adjusted to OD600 = 0.01) in TSB medium (supplemented with 0.2%
353 glucose) from overnight cultures. We added 90 µl of the bacterial culture to 10 µl of serially diluted
354 10× peptide solution in flat-bottomed 96-well polystyrene microtiter plates (Cat no. Corning 3595,
(§1) We used TSB medium containing
(§2) 356 bacteria with water as the positive control, while TSB media with sterile water served as the
(§3) 357 negative control. After incubation, we carefully removed the TSB medium and washed the wells
(§4) 358 with PBS (Gibco, MD, USA) to remove loosely attached planktonic cells. We quantified the
(§5) 359 biomass by staining the biofilms with crystal violet following an established protocol and
(§6) 360 quantitated the concentration of peptide that inhibits 50% of biofilm formation (MBIC50)(8). We
(§7) 361 measured the live cell count of the biofilms using XTT dye [2,3-bis(2-methyloxy-4-nitro-5-
362 sulfophenyl)-2H-tertazolium-5-carboxanilide] (ATCC, VA, USA).

[4] = test system: S. aureus VRS1 (VRSA) exponential and persister cells; test: S. aureus persister cell and time-kill assays (VRS1); format: cell-based, Staphylococcus aureus; conditions: approximately 1 × 10^7 CFU
Description: 305 Minimal inhibitory concentration (MIC) assay
We made serial dilutions of 10×
We determined the MIC using OD600
Accordingly, we added 150 mM NaCl,
319 established protocol (5).
323 aureus VRS1) in PBS. To assess the killing kinetics of CIT-8 in persister cells, we added 1 ml of
324 cell suspension to the wells of a 2-ml deep-well assay block (Cat no. 3960, Corning, NY, USA)
We also included ciprofloxacin (at 10 μg/ml) for S.
326 aureus MW2 and linezolid (100 μg/ml) for S. aureus VRS1 as antibiotic controls. Additionally,
327 we included bithionol (at 10 μg/ml) as a positive control, known for its ability to kill stationary
328 phase persister cells (6). We incubated the plates at 37°C, with shaking at 225 rpm. At specific
329 times (0, 15, 30, 60, and 120 min), we collected 10 μl samples, diluted them serially, and then
330 plated them on tryptic soy agar (TSA) (BD Difco, NJ, USA) plates. We incubated the TSA plates
331 for 18 hours at 37°C for colony counting. We performed these experiments in duplicate. As a
332 comparison, we prepared the exponential cells of S. aureus MW2 and VRS1 in PBS and analyzed
333 their killing kinetics in the same manner as described for persister cells.

S. aureus MW2 membrane = test: Propidium iodide-based membrane permeability; format: cell-based, Staphylococcus aureus; conditions: S. aureus MW2, 60 minutes
Description: 484 min at room temperature in the dark based on a previously established protocol (8). We added 90
485 µl of the dye/bacteria mixture to 10 μl of serially diluted 10× peptide concentration in black, 96-
486 well plates (Cat. no. 3904, Corning, NY, USA) and incubated the plates for 1 hour at room
487 temperature. We measured the fluorescence with excitation and emission wavelengths of 485 nm
488 and 525 nm, respectively in endpoint assay mode using a SpectraMax i3x (Molecular Devices,
489 CA, USA) fluorescence reader.
490 Propidium iodide-based membrane permeability
491 We used a propidium iodide (Thermo Fisher Scientific, MA, USA) fluorescence-based
492 bacterial permeation assay to establish membrane-oriented interactions with the designed peptides
493 based on a previously established protocol (8). We prepared exponential phase S. aureus MW2
494 bacteria and diluted to OD600 = 0.4 in PBS. We added PI dye (final concentration = 2 µM) to the
495 bacteria in 1:10 serial dilutions in black, 96-well plates (Cat. no. 3904, Corning, NY, USA) and
496 incubated the plates for 1 hour at room temperature. We then measured the fluorescence with an
497 excitation wavelength of 584 nm and an emission wavelength of 620 nm in endpoint assay mode
498 using a SpectraMax i3x (Molecular Devices, CA, USA) fluorescence reader.
501 To determine the ATP leakage potential of the peptides, we employed a luciferase-based
502 assay(18). In brief, we washed exponential phase of S. aureus MW2 bacteria three times with PBS
503 (pH 7.4) and adjusted the washed cells to OD600 = 0.4 in PBS. Following treatment of the bacteria
504 with 32 µg/ml of CIT-8 peptide at 37°C for 30 min, we centrifuged the cells at 14,000× g for 5
505 min. We transferred 50 µl of each supernatant fraction to black, clear-bottom, 96-well plates

[5] = test system: S. aureus MW2 24 h established biofilm; conditions: crystal violet, 24 h established biofilm, 24 h treatment
Description: 346 plated onto TSA plates, and incubated plates at 37°C overnight. The next day, we counted the
347 viable bacterial colonies.
as §1, §2, §3, §4, §5, §6, §7
362 sulfophenyl)-2H-tertazolium-5-carboxanilide] (ATCC, VA, USA). We calculated the percentage
363 of biofilm growth by normalizing to biofilm growth in wells containing bacteria without peptide
366 Disruption of S. aureus MW2 established biofilms
367 We evaluated the ability of the citropin 1.1-derived peptides to disrupt established biofilms
368 following an established protocol with modifications (5). We prepared exponential cultures of S.
369 aureus MW2 (adjusted to 1 × 10^6 CFU/ml) in TSB medium (supplemented with 0.2% glucose)
370 from overnight grown cultures. We added 100 µl of bacterial culture to flat-bottomed 96-well
371 polystyrene microtiter plates (Cat no. 3595, Corning, NY, USA). We then incubated the plates at
372 37°C for 24 hours in static conditions to allow biofilm formation. After incubation, we carefully
373 pipetted out the TSB medium and washed the wells with PBS (Gibco, MD, USA) to remove
374 loosely attached planktonic cells. We treated the established biofilms in each well with 10 µl of
375 serially diluted 10× peptide solution, followed by the addition of 90 μl TSB medium
376 (supplemented with 0.2% glucose). We incubated the plates for another 24 h at 37°C before
377 processing biomass and live-cell contents. We calculated the concentration of peptide that disrupts
378 50% of established biofilms (MBEC50).

S. aureus JE2 = test system: S. aureus JE2; set-up: method as in PMID 31336137; conditions: S. aureus JE2 (USA300 isolate); cited from earlier work
From the text: In MRSA, antimicrobial resistance is linked to life-threatening infections, such as pneumonia, sepsis, and endocarditis ([48]). The situation is further complicated by the presence of S. aureus bacteria in alternative physiological states such as biofilms and persister cells, which are often neglected in early antimicrobial drug discovery stages even though they contribute substantially to chronic, relapsing infections ([49]).

Row | Compound | Reduction of MRSA biofilm burden on solid membrane [1] [logs] | Reduction of VRSA biofilm burden on solid membrane [2] [logs] | MBIC50 (biomass reduced by 50%) [3] [µg/mL] | Time to elimination of exponential and persister cells of VRSA [4] [min] | Propidium iodide fluorescence (membrane permeation) (S. aureus MW2 membrane) | MBEC50 (50% of biomass disrupted) [5] [µg/mL] | MIC (S. aureus JE2) [µg/mL]
1 | CC[C@H](C)[C@H](NC(=O)CN)C(=O)NCC(=O)N[C@@H](C)C(=O)N[C@H](C(=O)N[C@@H](CC(C)C)C(=O)N[C@@H](CCCCN)C(=O)N[C@H](C(=O)N[C@@H](CC(C)C)C(=O)N[C@H](C(=O)N[C@H](C(=O)NCC(=O)N[C@@H](CC(C)C)C(=O)N1CCC[C@H]1C(=O)N[C@@H](C)C(=O)N[C@@H](CC(C)C)C(=O)N[C@H](C(=O)N[C@@H](CO)C(=O)N[C@@H](Cc1c[nH]c2ccccc12)C(=O)N[C@H](C(=O)N[C@@H](CCCCN)C(=O)N[C@@H](CCCNC(=N)N)C(=O)N[C@@H](CCCCN)C(=O)N[C@@H](CCCNC(=N)N)C(=O)N[C@@H](CCC(N)=O)C(=O)N[C@@H](CCC(N)=O)C(N)=O)[C@@H](C)CC)[C@@H](C)CC)[C@@H](C)O)[C@@H](C)O)C(C)C)C(C)C [melittin, reference compound] | 1.85 | 3.9 | 4.8 | ≤ 120 | elevated fluorescence levels | 2.3 | 
2 | citropin 1.1 |  |  |  |  |  |  | 32
